# Measurements from patent US9617310B2 (priority 2013, dated 2017).
# Columns and labels:
# NS3 genotype 1b protease = molecular target: T1, NS3 genotype 1b protease (Hepatitis C virus genotype 1b, UniProt Q9WMX2, E1202G); test: Ki determination, NS3 protease genotype 1b (fluorogenic depsipeptide substrate); format: biochemical; details: NS3 protease domain genotype 1b, NS4A peptide
# T1 construct: Purified NS3 protease domain (amino acids 1-181) of the genotype 1b and 3a virus were generated as above; K3 hexahistidine tag (N); rTEV protease cleavage site (N); made in house; host or cells: E. coli BL21AI
# In short: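 NS3 protease domain (aa 1-181), 50 pM (1b) or 200 pM (3a), with 20 μM NS4A peptide, pre-incubated 1 h with inhibitor (100 nM–5 pM); 4 μM (1b) or 2 μM (3a) FRET depsipeptide substrate, room temperature, pH-unspecified HEPES buffer with 40% glycerol, 10% DMSO. Steady-state rates at 90–120 min (ex 340/em 490); Morrison fit gave Ki^app, corrected to Ki via substrate/Km.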
# [1] = system: genotype 1b stable HCV replicon (Con1) in Huh-7-derived cells; test: Stable subgenomic HCV replicon, genotype 1b, Renilla luciferase; format: cell-based; details: Hepatitis C virus, stable replicon genotype 1b, 72 h, read-out: EC50 1B RLUC
# In short: (§1)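 Replicons carry hRLuc-neo, EMCV IRES and NS3-NS5B with adaptive mutations: 1a H77 P1496L/S2204I, 1b Con1 E1202G/T1280I/K1846T, 4a ED43 Q1691R/S2204I. EC50 came from non-linear regression versus DMSO and a triple-inhibitor full-inhibition control.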
# [2] = system: genotype 2a stable HCV replicon (JFH-1) in Huh-7-derived cells; test: Stable subgenomic HCV replicon, genotype 2a, Renilla luciferase; format: cell-based; details: Hepatitis C virus, stable replicon genotype 2a, 72 h, read-out: EC50 2A RLUC
# [3] = system: genotype 3a stable HCV replicon (S52) in Huh-7-derived cells; test: Stable subgenomic HCV replicon, genotype 3a, Renilla luciferase; format: cell-based; details: Hepatitis C virus, 72 h, read-out: EC50 3A RLUC
# [4] = system: genotype 4a stable HCV replicon (ED43) in Huh-7-derived cells; test: Stable subgenomic HCV replicon, genotype 4a, Renilla luciferase; format: cell-based; details: Hepatitis C virus, 72 h, read-out: EC50 4A RLUC
# In short: as §1
# [5] = system: genotype 3a transient HCV replicon (S52) in Huh-7-derived cells; test: Transient-transfected HCV replicon, genotype 3a wild type; format: cell-based; details: Hepatitis C virus; transient-transfected replicon genotype 3a wild type, 72 h; read-out: EC50 3A WT
# [6] = system: genotype 1a (H77) wild-type transient HCV replicon in Huh-7-derived cells; test: Transient-transfected HCV replicon, genotype 1a wild type; format: cell-based; details: Hepatitis C virus; transient-transfected replicon genotype 1a wild type, 72 h; read-out: EC50 1A WT
# [7] = system: NS3/4a protease inhibitor resistant variant R155K in genotype 1a transient HCV replicon; test: Transient-transfected HCV replicon, genotype 1a R155K; format: cell-based; details: Hepatitis C virus, 72 h, read-out: EC50 1A R155K
# [8] = system: genotype 1b wild-type transient HCV replicon in Huh-7-derived cells; test: Transient-transfected HCV replicon, genotype 1b wild type; format: cell-based; details: Hepatitis C virus; transient-transfected replicon genotype 1b wild type, 72 h; read-out: EC50 1B WT
# [9] = system: NS3/4a protease inhibitor resistant variant D168A in genotype 1b transient HCV replicon; test: Transient-transfected HCV replicon, genotype 1b D168A; format: cell-based; details: Hepatitis C virus, 72 h, read-out: EC50 1B D168A
# T1 sequence (Q9WMX2 1027-1207 E1202G, other chains not shown): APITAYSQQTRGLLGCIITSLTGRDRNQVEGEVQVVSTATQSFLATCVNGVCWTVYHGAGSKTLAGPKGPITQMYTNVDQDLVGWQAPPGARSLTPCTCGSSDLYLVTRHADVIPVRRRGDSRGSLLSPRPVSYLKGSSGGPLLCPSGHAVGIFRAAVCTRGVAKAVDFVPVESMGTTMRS
SMILES,Ki (NS3 genotype 1b protease) [nM],EC50 [1] [nM],EC50 [2] [nM],EC50 [3] [nM],EC50 [4] [nM],EC50 [5] [nM],EC50 [6] [nM],EC50 [7] [nM],EC50 [8] [nM],EC50 [9] [nM]
"CC(C)(C)[C@@H]1NC(=O)O[C@@H]2C[C@@H]3C[C@@H]3[C@H]2CCCCC(F)(F)c2nc3cc(F)c(F)cc3nc2O[C@@H]2C[C@@H](C(=O)N[C@]3(C(=O)NS(=O)(=O)C4CC4)C[C@H]3C(F)F)N(C2)C1=O (racemic) [Example 15, (1aS,2aR,6S,9S,11R,23aR,23bS)-6-tert-butyl-N-[(1R,2R)-1-[(cyclopropylsulfonyl)carbamoyl]-2-(difluoromethyl)cyclopropyl]-15,16,19,19-tetrafluoro-4,7-dioxo-1a,2,2a,4,5,6,7,10,11,19,20,21,22,23,23a,23b-hexadecahydro-1H,9H-8,11-methanocyclopropa[4′,5′]cyclopenta[1′,2′:18,19][1,10,3,6]dioxadiazacyclononadecino[11,12-b]quinoxaline-9-carboxamide]",0.03,3.4,3.3,30,2.6,11,1.6,1.2,1.3,4.7
"COc1ccc2nc3c(nc2c1)O[C@@H]1C[C@@H](C(=O)N[C@]2(C(=O)NS(=O)(=O)C4CC4)C[C@H]2C(F)F)N(C1)C(=O)[C@H](C(C)(C)C)NC(=O)O[C@@H]1C[C@@H]2C[C@@H]2[C@H]1CCCCC3(F)F (racemic) [Example 9, (1aS,2aR,6S,9S,11R,23aR,23bS)-6-tert-butyl-N-[(1R,2R)-1-[(cyclopropylsulfonyl)carbamoyl]-2-(difluoromethyl)cyclopropyl]-19,19-difluoro-15-methoxy-4,7-dioxo-1a,2,2a,4,5,6,7,10,11,19,20,21,22,23,23a,23b-hexadecahydro-1H,9H-8,11-methanocyclopropa[4′,5′]cyclopenta[1′,2′:18,19][1,10,3,6]dioxadiazacyclononadecino[11,12-b]quinoxaline-9-carboxamide]",0.02,1.5,2.3,6.6,1.4,2.5,1.3,1.1,0.71,1.1
"CC(C)(C)[C@@H]1NC(=O)O[C@@H]2C[C@@H]3C[C@@H]3[C@H]2CC/C=C/C(F)(F)c2nc3ccc(C#N)cc3nc2O[C@@H]2C[C@@H](C(=O)N[C@]3(C(=O)NS(=O)(=O)C4(C)CC4)C[C@H]3C(F)F)N(C2)C1=O [Example 13, (1aS,2aR,6S,9S,11R,20E,23aR,23bS)-6-tert-butyl-15-cyano-N-[(1R,2R)-2-(difluoromethyl)-1-{[(1-methylcyclopropyl)sulfonyl]carbamoyl}cyclopropyl]-19,19-difluoro-4,7-dioxo-1a,2,2a,4,5,6,7,10,11,19,22,23,23a,23b-tetradecahydro-1H,9H-8,11-methanocyclopropa[4′,5′]cyclopenta[1′,2′18,19][1,10,3,6]dioxadiazacyclononadecino[11,12-b]quinoxaline-9-carboxamide]",0.02,3,1.4,7.2,3.6,2.8,2.8,2,0.99,1.1
"CC(C)(C)[C@@H]1NC(=O)O[C@@H]2C[C@@H]3C[C@@H]3[C@H]2CCCCCc2nc3ccc(F)cc3nc2O[C@@H]2C[C@@H](C(=O)N[C@]3(C(=O)NS(=O)(=O)C4(C)CC4)C[C@H]3C(F)F)N(C2)C1=O [Example 11, (1aS,2aR,6S,9S,11R,23aR,23bS)-6-tert-butyl-N-[(1R,2R)-2-(difluoromethyl)-1-{[(1-methylcyclopropyl)sulfonyl]carbamoyl}cyclopropyl]-15-fluoro-4,7-dioxo-1a,2,2a,4,5,6,7,10,11,19,20,21,22,23,23a,23b-hexadecahydro-1H,9H-8,11-methanocyclopropa[4′,5′]cyclopenta[1′,2′:18,19][1,10,3,6]dioxadiazacyclononadecino[11,12-b]quinoxaline-9-carboxamide]",0.02,1.3,2,61,1.2,9.7,1.4,1.9,0.78,8.6
"COc1ccc2nc3c(nc2c1)O[C@@H]1C[C@@H](C(=O)N[C@]2(C(=O)NS(=O)(=O)C4CC4)C[C@H]2C(F)F)N(C1)C(=O)[C@H](C(C)(C)C)NC(=O)O[C@H]1[C@H](CCCCC3)C[C@H]2C[C@H]21 [Example 7, (1aR,1bS,5S,8S,10R,22aR,23aR)-5-tert-butyl-N-[(1R,2R)-1-[(cyclopropylsulfonyl)carbamoyl]-2-(difluoromethyl)cyclopropyl]-14-methoxy-3,6-dioxo-1a,1b,3,4,5,6,9,10,18,19,20,21,22,22a,23,23a-hexadecahydro-1H,8H-7,10-methanocyclopropa[3′,40]cyclopenta[1′,2′:18,19][1,10,3,6]dioxadiazacyclononadecino[11,12-b]quinoxaline-8-carboxamide]",0.05,82,199,3300,55,928,72,180,53,1070
"COc1ccc2nc3c(nc2c1)O[C@@H]1C[C@@H](C(=O)N[C@]2(C(=O)NS(=O)(=O)C4(C)CC4)C[C@H]2C(F)F)N(C1)C(=O)[C@H](C(C)(C)C)NC(=O)O[C@H]1[C@H](CCCCC3)C[C@H]2C[C@H]21 [Example 8, (1aR,1bS,5S,8S,10R,22aR,23aR)-5-tert-butyl-N-[(1R,2R)-2-(difluoromethyl)-1-{[(1-methylcyclopropyl)sulfonyl]carbamoyl}cyclopropyl]-14-methoxy-3,6-dioxo-1a,1b,3,4,5,6,9,10,18,19,20,21,22,22a, 23,23a-hexadecahydro-1H,8H-7,10-methanocyclopropa[3′,4′]cyclopenta [1′,2′:18,19][1,10,3,6]dioxadiazacyclononadecino[11,12-b]quinoxaline-8-carboxamide]",0.04,55,110,2450,33,817,72,148,33,712
"COc1ccc2nc3c(nc2c1)O[C@@H]1C[C@@H](C(=O)N[C@]2(C(=O)NS(=O)(=O)C4(C)CC4)C[C@H]2C(F)F)N(C1)C(=O)[C@H](C(C)(C)C)NC(=O)O[C@@H]1[C@H]2CC[C@H](C2)[C@H]1CCCCC3 [Example 5, (1R,4S,4aR,8S,11S,13R,25aR)-8-tert-butyl-N-[(1R,2R)-2-(difluoromethyl)-1-{[(1-methylcyclopropyl)sulfonyl]carbamoyl}cyclopropyl]-17-methoxy-6,9-dioxo-2,3,4,4a,6,7,8,9,12,13,21,22,23,24,25,25a-hexadecahydro-1H,11H-1, 4:10,13-dimethanoquinoxalino[2,3-k][1,10,3,6]benzodioxadiazacyclononadecine-11-carboxamide]",0.02,3.5,14,473,3.9,64,4.2,35,2.1,161
"COc1ccc2nc3c(nc2c1)O[C@@H]1C[C@@H](C(=O)N[C@]2(C(=O)NS(=O)(=O)C4CC4)C[C@H]2CC(F)F)N(C1)C(=O)[C@H](C(C)(C)C)NC(=O)O[C@@H]1C[C@@H]2C[C@@H]2[C@H]1CCCCC3 [Example 3, (1aS,2aR,6S,9S,11R,23aR,23bS)-6-tert-butyl-N-[(1R,2S)-1-[(cyclopropylsulfonyl)carbamoyl]-2-(2,2-difluoroethyl)cyclopropyl]-15-methoxy-4,7-dioxo-1a,2,2a,4,5,6,7,10,11,19,20,21,22,23,23a,23b-hexadecahydro-1H,9H-8,11-methanocyclopropa[4′,5′]cyclopenta[1′,2′:18,19][1,10,3,6]dioxadiazacyclononadecino[11,12-b]quinoxaline-9-carboxamide]",0.03,3.2,15,194,3.4,67,5.1,11,2.9,50
